Laboratory results as given in PubChem BioAssay AID1259407 (Chemical Carcinogenesis Research Information System (CCRIS), 2018).
The source made the active and inactive calls. How the calls were made is not given here.

Test system: CCRIS mutagenicity, Ames/micronucleus/aberration tests
Experiment: CCRIS mutagenicity studies
[1] = Test System: AMES SALMONELLA TYPHIMURIUM, Strain/Indicator: TA98, Metabolic Activation: NONE, Method: STANDARD PLATE
[2] = Test System: AMES SALMONELLA TYPHIMURIUM, Strain/Indicator: TA97, Metabolic Activation: HAMSTER, LIVER, S-9, AROCLOR 1254 (30%), Method: PREINCUBATION
[3] = Test System: AMES SALMONELLA TYPHIMURIUM, Strain/Indicator: TA97, Metabolic Activation: NONE, Method: PREINCUBATION
[4] = Test System: AMES SALMONELLA TYPHIMURIUM, Strain/Indicator: TA97, Metabolic Activation: RAT, LIVER, S-9, AROCLOR 1254 (30%), Method: PREINCUBATION
[5] = Test System: AMES SALMONELLA TYPHIMURIUM, Strain/Indicator: TA98, Metabolic Activation: HAMSTER, LIVER, S-9, AROCLOR 1254 (30%), Method: PREINCUBATION
[6] = Test System: AMES SALMONELLA TYPHIMURIUM, Strain/Indicator: TA98, Metabolic Activation: NONE, Method: PREINCUBATION
[7] = Test System: AMES SALMONELLA TYPHIMURIUM, Strain/Indicator: TA98, Metabolic Activation: RAT, LIVER, S-9, AROCLOR 1254 (30%), Method: PREINCUBATION
[8] = Test System: AMES SALMONELLA TYPHIMURIUM, Strain/Indicator: TA100, Metabolic Activation: HAMSTER, LIVER, S-9, AROCLOR 1254 (30%), Method: PREINCUBATION
[9] = Test System: AMES SALMONELLA TYPHIMURIUM, Strain/Indicator: TA100, Metabolic Activation: NONE, Method: PREINCUBATION
[10] = Test System: AMES SALMONELLA TYPHIMURIUM, Strain/Indicator: TA100, Metabolic Activation: RAT, LIVER, S-9, AROCLOR 1254 (30%), Method: PREINCUBATION
[11] = Test System: AMES SALMONELLA TYPHIMURIUM, Strain/Indicator: TA1535, Metabolic Activation: HAMSTER, LIVER, S-9, AROCLOR 1254 (10%), Method: PREINCUBATION
[12] = Test System: AMES SALMONELLA TYPHIMURIUM, Strain/Indicator: TA1535, Metabolic Activation: HAMSTER, LIVER, S-9, AROCLOR 1254 (30%), Method: PREINCUBATION
[13] = Test System: AMES SALMONELLA TYPHIMURIUM, Strain/Indicator: TA1535, Metabolic Activation: NONE, Method: PREINCUBATION
[14] = Test System: AMES SALMONELLA TYPHIMURIUM, Strain/Indicator: TA1535, Metabolic Activation: RAT, LIVER, S-9, AROCLOR 1254 (30%), Method: PREINCUBATION
[15] = Test System: AMES SALMONELLA TYPHIMURIUM, Strain/Indicator: TA1537, Metabolic Activation: NONE, Method: PREINCUBATION

Row | Compound | mutagenic call [1] | mutagenic call [2] | mutagenic call [3] | mutagenic call [4] | mutagenic call [5] | mutagenic call [6] | mutagenic call [7] | mutagenic call [8] | mutagenic call [9] | mutagenic call [10] | mutagenic call [11] | mutagenic call [12] | mutagenic call [13] | mutagenic call [14] | mutagenic call [15] | other results
1 | CC(C)CN(C(=O)CCCl)c1snc2ccccc12 | inactive; negative |  |  |  |  |  |  |  |  |  |  |  |  |  |  | mutagenic call (Test System: AMES SALMONELLA TYPHIMURIUM, Strain/Indicator: TA98, Metabolic Activation: S-9, Method: STANDARD PLATE): inactive; negative; mutagenic call (Test System: AMES SALMONELLA TYPHIMURIUM, Strain/Indicator: TA100, Metabolic Activation: NONE, Method: STANDARD PLATE): inactive; negative; mutagenic call (Test System: AMES SALMONELLA TYPHIMURIUM, Strain/Indicator: TA100, Metabolic Activation: S-9, Method: STANDARD PLATE): inactive; negative; mutagenic call (Test System: AMES SALMONELLA TYPHIMURIUM, Strain/Indicator: TA1535, Metabolic Activation: NONE, Method: STANDARD PLATE): inactive; negative; mutagenic call (Test System: AMES SALMONELLA TYPHIMURIUM, Strain/Indicator: TA1535, Metabolic Activation: S-9, Method: STANDARD PLATE): inactive; negative; mutagenic call (Test System: AMES SALMONELLA TYPHIMURIUM, Strain/Indicator: TA1537, Metabolic Activation: NONE, Method: STANDARD PLATE): inactive; negative; mutagenic call (Test System: AMES SALMONELLA TYPHIMURIUM, Strain/Indicator: TA1537, Metabolic Activation: S-9, Method: STANDARD PLATE): inactive; negative
2 | CCCSC(=O)Cl |  | inactive; negative | inactive; negative | inactive; negative | inactive; negative | inactive; negative | inactive; negative | inactive; negative | inactive; negative | inactive; negative | active; positive | active; positive | inactive; negative | inactive; negative | inactive; negative | mutagenic call (Test System: AMES SALMONELLA TYPHIMURIUM, Strain/Indicator: TA1535, Metabolic Activation: HAMSTER, LIVER, S-9, AROCLOR 1254 (5%), Method: PREINCUBATION): inactive; negative; mutagenic call (Test System: AMES SALMONELLA TYPHIMURIUM, Strain/Indicator: TA1537, Metabolic Activation: HAMSTER, LIVER, S-9, AROCLOR 1254 (30%), Method: PREINCUBATION): inactive; negative; mutagenic call (Test System: AMES SALMONELLA TYPHIMURIUM, Strain/Indicator: TA1537, Metabolic Activation: RAT, LIVER, S-9, AROCLOR 1254 (30%), Method: PREINCUBATION): inactive; negative
3 | O=C1Cc2cc3ccc([N+](=O)[O-])cc3cc2[C@H](O)[C@H]1O | inactive; negative |  |  |  |  |  |  |  |  |  |  |  |  |  |  | 
4 | CCCCCCCCBr |  |  |  |  |  | inactive; negative |  |  | inactive; negative |  |  |  | inactive; negative |  | inactive; negative | mutagenic call (Test System: AMES SALMONELLA TYPHIMURIUM, Strain/Indicator: TA98, Metabolic Activation: RAT LIVER S-9, PHENOBARBITAL AND BETA-NAPHTHOFLAVONE, Method: PREINCUBATION): inactive; negative; mutagenic call (Test System: AMES SALMONELLA TYPHIMURIUM, Strain/Indicator: TA100, Metabolic Activation: RAT LIVER S-9, PHENOBARBITAL AND BETA-NAPHTHOFLAVONE, Method: PREINCUBATION): inactive; negative; mutagenic call (Test System: AMES SALMONELLA TYPHIMURIUM, Strain/Indicator: TA102, Metabolic Activation: NONE, Method: PREINCUBATION): inactive; negative; mutagenic call (Test System: AMES SALMONELLA TYPHIMURIUM, Strain/Indicator: TA102, Metabolic Activation: RAT LIVER S-9, PHENOBARBITAL AND BETA-NAPHTHOFLAVONE, Method: PREINCUBATION): inactive; negative; mutagenic call (Test System: AMES SALMONELLA TYPHIMURIUM, Strain/Indicator: TA104, Metabolic Activation: NONE, Method: PREINCUBATION): inactive; negative; mutagenic call (Test System: AMES SALMONELLA TYPHIMURIUM, Strain/Indicator: TA104, Metabolic Activation: RAT LIVER S-9, PHENOBARBITAL AND BETA-NAPHTHOFLAVONE, Method: PREINCUBATION): inactive; negative; mutagenic call (Test System: AMES SALMONELLA TYPHIMURIUM, Strain/Indicator: TA1535, Metabolic Activation: RAT LIVER S-9, PHENOBARBITAL AND BETA-NAPHTHOFLAVONE, Method: PREINCUBATION): inactive; negative; mutagenic call (Test System: AMES SALMONELLA TYPHIMURIUM, Strain/Indicator: TA1537, Metabolic Activation: RAT LIVER S-9, PHENOBARBITAL AND BETA-NAPHTHOFLAVONE, Method: PREINCUBATION): inactive; negative; mutagenic call (Test System: E.COLI, Strain/Indicator: WP2UVRA/PKM101, Metabolic Activation: NONE, Method: PREINCUBATION): inactive; negative; mutagenic call (Test System: E.COLI, Strain/Indicator: WP2UVRA/PKM101, Metabolic Activation: RAT LIVER S-9, PHENOBARBITAL AND BETA-NAPHTHOFLAVONE, Method: PREINCUBATION): inactive; negative; mutagenic call (Test System: E.COLI, Strain/Indicator: WP2UVRA, Metabolic Activation: NONE, Method: PREINCUBATION): inactive; negative; mutagenic call (Test System: E.COLI, Strain/Indicator: WP2UVRA, Metabolic Activation: RAT LIVER S-9, PHENOBARBITAL AND BETA-NAPHTHOFLAVONE, Method: PREINCUBATION): inactive; negative
5 | ONc1ccc(Sc2ccccc2)cc1 | active; positive |  |  |  |  |  |  |  |  |  |  |  |  |  |  | mutagenic call (Test System: AMES SALMONELLA TYPHIMURIUM, Strain/Indicator: TA98(1,8-DNP6), Metabolic Activation: NONE, Method: STANDARD PLATE): active; positive; mutagenic call (Test System: AMES SALMONELLA TYPHIMURIUM, Strain/Indicator: TA98(NR), Metabolic Activation: NONE, Method: STANDARD PLATE): active; positive
6 | CCCCCCCCCCCC(=O)[O][Sn]([CH2]CCC)([CH2]CCC)[O]C(=O)CCCCCCCCCCC |  | inactive; negative | inactive; negative | inactive; negative | inactive; negative | inactive; negative | inactive; negative | inactive; negative | inactive; negative | inactive; negative | inactive; negative | inactive; negative | inactive; negative | inactive; negative |  | mutagenic call (Test System: AMES SALMONELLA TYPHIMURIUM, Strain/Indicator: TA97, Metabolic Activation: HAMSTER, LIVER, S-9, AROCLOR 1254 (10%), Method: PREINCUBATION): inactive; negative; mutagenic call (Test System: AMES SALMONELLA TYPHIMURIUM, Strain/Indicator: TA97, Metabolic Activation: RAT, LIVER, S-9, AROCLOR 1254 (10%), Method: PREINCUBATION): inactive; negative; mutagenic call (Test System: AMES SALMONELLA TYPHIMURIUM, Strain/Indicator: TA98, Metabolic Activation: HAMSTER, LIVER, S-9, AROCLOR 1254 (10%), Method: PREINCUBATION): inactive; negative; mutagenic call (Test System: AMES SALMONELLA TYPHIMURIUM, Strain/Indicator: TA98, Metabolic Activation: RAT, LIVER, S-9, AROCLOR 1254 (10%), Method: PREINCUBATION): inactive; negative; mutagenic call (Test System: AMES SALMONELLA TYPHIMURIUM, Strain/Indicator: TA100, Metabolic Activation: HAMSTER, LIVER, S-9, AROCLOR 1254 (10%), Method: PREINCUBATION): inactive; negative; mutagenic call (Test System: AMES SALMONELLA TYPHIMURIUM, Strain/Indicator: TA100, Metabolic Activation: RAT, LIVER, S-9, AROCLOR 1254 (10%), Method: PREINCUBATION): inactive; negative; mutagenic call (Test System: AMES SALMONELLA TYPHIMURIUM, Strain/Indicator: TA1535, Metabolic Activation: RAT, LIVER, S-9, AROCLOR 1254 (10%), Method: PREINCUBATION): inactive; negative
